Data set [1] in a line: Transmission electron microscopy of peptide fibrils. The format is physicochemical. The settings on record: amyloid-like fibrils after 5 days at room temperature. The text has this:
(§1) In the interest of improving the current description of the familiar amyloidogenic protein dataset, we selected and synthesised a subset of 96 peptides corresponding to strong aggregation prone regions identified in these proteins by Cordax. Apart of prediction strength, the peptide screen was also selectively constructed to ensure broad sequence variability and a wide distribution on the proteins of the dataset, with a preference for longer entries defined by inadequate previous characterisation. Peptide sequences were cross-checked and filtered to exclude overlapping sequences with previously identified amyloid regions and WALTZ-DB (see Table 2). The remaining selection of 96 peptides were synthesized using standard solid phase synthesis and their amyloid-forming properties were initially examined using Thioflavin-T (Th-T) or pFTAA binding, following rotating incubation for 5 days at room temperature. The binding assays are complementary, as Th-T and pFTAA are opposingly charged molecules, which increases the amyloid identification rate by overcoming cases of dye-specific failure to bind to amyloid surfaces based on charge repulsion. Under these conditions, 66 peptides successfully bind the specific dyes (FIGS. 3a & 3b) by forming fibrils with typical amyloid morphologies and properties that were verified using transmission electron microscopy (FIG. 3c) and Congo red staining for selected cases (FIG. 3d). As these dyes are known to yield false negatives, in particular for short peptides, all dye-negative peptides were further investigated using electron microscopy. During this scan, we recovered 19 additional sequences that were capable of forming sparse amyloid-like fibrils with shorter lengths (see FIG. 8).
(§2) Peptide solutions were incubated for 5 days at room temperature in order to form mature amyloid-like fibrils. Suspensions (5 μL) of each peptide solution were added on 400-mesh carbon-coated copper grids (Agar Scientific Ltd., England), following a glow-discharging step of 30 s to improve sample adsorption. Grids were washed with milli-Q water and negatively stained using uranyl acetate (2% w/v in milli-Q water). Grids were examined with a JEM-1400 120 kV transmission electron microscope (JEOL, Japan), operated at […].

Data set [2] can be described thus: Thioflavin-T binding assay of synthetic peptides. The format is physicochemical. The settings on record: 200 μM peptide, rotation 5 days, room temperature; Th-T 25 μM.
Source text: as §1
(§3) Peptides derived from the Cordax validation set were synthesized using an Intavis Multipep RSi solid phase peptide synthesis robot. Peptide purity (>90%) was evaluated using RP-HPLC purification protocols and peptides were stored as ether precipitates (−20° C.). Peptide stocks were initially treated with 1,1,1,3,3,3-hexafluoro-isopropanol (HFIP) (Merck), then dissolved in traces of dimethyl sulfoxide (DMSO) (Merck) (<5%), filtered through 0.2 μm filters and finally in milli-Q water to reach a final concentration of 200 μM or up to 1 mM for dye-negative peptides. Dithiothreitol (DTT) (1 mM) was included in solutions of peptides spanning cysteine or methionine residues. All peptides were incubated at room temperature for a period of 5 days on a rotating wheel.
(§4) Amyloid aggregation was monitored using fluorescent spectroscopy binding assays. Th-T (Sigma) or pFTAA (Ebba Biotech AB) was added in half-area black 96-well microplates (Corning, USA) at a final concentration of 25 μM and 0.5 μM, respectively. Fluorescence intensity was measured in replicates (n=6) using a PolarStar Optima and a FluoStar Omega plate reader (BMG Labtech, Germany), equipped with an excitation filter at 440 nm and emission filters at 480 nm and 510 nm, respectively.

Data set [3] can be described thus: Amyloid-forming properties of the peptide screen (overall call from Th-T, pFTAA, TEM). Type of data set: physicochemical. The conditions noted are these: overall amyloid-forming call.
Source text: as §1, with “8). […]” for “8).”
as §3, §4, §2

A short description of data set [4]: pFTAA binding assay of synthetic peptides. Type of data set: physicochemical. The conditions noted are these: 200 μM peptide, rotation 5 days, room temperature; pFTAA 0.5 μM.
Source text: as §1, §3, §4

The next data set has as its target T1, Apo-AI (Homo sapiens, UniProt P02647).
T1 construct: Endpoint fluorescence analysis; made in house; host or cells: solid phase peptide synthesis (no expression host)
The data set is described as follows: Th-T kinetics and endpoint fluorescence analysis of ApoA-I APR variant peptides. The format is biochemical. The settings on record: triplicate. As to the method:
The Th-T kinetics (see FIGS. 12A and 12B) and the endpoint fluorescence analysis (see FIG. 11) were performed in triplicate for the peptides depicted in Table 5.
The Th-T kinetics (see FIGS. 13A and 13B) and the endpoint fluorescence analysis (see FIG. 11) were performed in triplicate for the peptides depicted in Table 6.
as §4

As for AAYLWV, in data set [1], the TEM result is recorded as “●”. Moreover, the “Th-T Binding” value in data set [2] is “●”. In addition, the Amyloid entry in data set [3] is “●”. In data set [4], the “pFTAA Binding” value is given as “●”.

With AEIEIE, the TEM entry in data set [1] is given as “●”. For the same substance, the “Th-T Binding” value in data set [2] is listed as “●”. The Amyloid result in data set [3] is on record as “●”. The “pFTAA Binding” value in data set [4] is “●”.

For ASLTIL, the TEM result in data set [1] is “●”. For the same substance, in data set [2], the “Th-T Binding” value is “●”. For the same substance, the Amyloid entry in data set [3] is given as “●”. Also, in data set [4], the “pFTAA Binding” value is “●”.

Turning to FVIEEV, in data set [1], the TEM result was “●”. Also, the “Th-T Binding” value in data set [2] is reported as “●”. For the same substance, the Amyloid entry in data set [3] is “●”. Further, the “pFTAA Binding” value in data set [4] is reported as “●”.

IFTVQL: the TEM result in data set [1] is “●”. Besides, the “Th-T Binding” value in data set [2] is “●”. For the same substance, the Amyloid result in data set [3] is listed as “●”. In addition, the “pFTAA Binding” value in data set [4] is given as “●”.

Take IIYNWQ: the TEM entry in data set [1] was “●”. Further, the “Th-T Binding” value in data set [2] is “●”. In addition, the Amyloid result in data set [3] is listed as “●”. For the same substance, the “pFTAA Binding” value in data set [4] is “●”.

Turning to ILLLFE, in data set [1], the TEM result is “●”. For the same substance, the “Th-T Binding” value in data set [2] is listed as “●”. The Amyloid entry in data set [3] is given as “●”. Also, the “pFTAA Binding” value in data set [4] is recorded as “●”.

Take IQVYSR: the TEM result in data set [1] is given as “●”. The “Th-T Binding” value in data set [2] is “●”. In addition, the Amyloid entry in data set [3] is on record as “●”. For the same substance, in data set [4], the “pFTAA Binding” value is on record as “●”.

Take “LAIVYV (Aggregation inducer) [SEQ ID NO: 182, candidate aggregation inducing variant of ApoA-I APR]”: in the data set with Apo-AI, the “induce the aggregation of Apo-AI” value is “most performant peptides which can induce the aggregation of Apo-AI”.

In the case of “LLTVYV (Aggregation inducer) [SEQ ID NO: 178, candidate aggregation inducing variant of ApoA-I APR]”, in the data set with Apo-AI, the “induce the aggregation of Apo-AI” value was “most performant peptides which can induce the aggregation of Apo-AI”.

For “LWTVYV (Capping peptide) [SEQ ID NO: 175, candidate capping peptide variant of ApoA-I APR]”, the “capping peptide: prevent the aggregation of Apo-AI” value with Apo-AI is listed as “most performant capping peptides”.

Take “LYTVYV (Capping peptide) [SEQ ID NO: 176, candidate capping peptide variant of ApoA-I APR]”: in the data set with Apo-AI, the “capping peptide: prevent the aggregation of Apo-AI” value is listed as “most performant capping peptides”.

Take NDAFVL: the TEM entry in data set [1] was “●”. Moreover, the “Th-T Binding” value in data set [2] is “●”. In addition, in data set [3], the Amyloid entry is recorded as “●”. For the same substance, the “pFTAA Binding” value in data set [4] is given as “●”.

Regarding NFSIRY, in data set [1], the TEM result is “●”. For the same substance, in data set [2], the “Th-T Binding” value is given as “●”. Also, in data set [3], the Amyloid result is on record as “●”. In data set [4], the “pFTAA Binding” value is “●”.

Turning to QVFVWV, the TEM entry in data set [1] is recorded as “●”. For the same substance, the “Th-T Binding” value in data set [2] was “●”. Also, the Amyloid entry in data set [3] was “●”. Moreover, the “pFTAA Binding” value in data set [4] is recorded as “●”.

On to SQFIKL, for which the TEM result in data set [1] is “●”. Also, the Amyloid result in data set [3] is reported as “●”.

On to STVISY, for which the TEM entry in data set [1] is “●”. Also, the “Th-T Binding” value in data set [2] is listed as “●”. Further, in data set [3], the Amyloid entry is “●”. In data set [4], the “pFTAA Binding” value is “●”.

For TLFTMD, in data set [1], the TEM entry is reported as “●”. Also, the Amyloid result in data set [3] was “●”.

On to VHIVKL, for which, in data set [1], the TEM entry is given as “●”. Also, the Amyloid result in data set [3] was “●”. Also, the “pFTAA Binding” value in data set [4] is “●”.

On to VNFSEF, for which the TEM result in data set [1] is listed as “●”. Also, the “Th-T Binding” value in data set [2] was “●”. The Amyloid result in data set [3] is “●”. The “pFTAA Binding” value in data set [4] is “●”.

As to VYVDVL, the TEM entry in data set [1] is recorded as “●”. The “Th-T Binding” value in data set [2] is on record as “●”. In addition, the Amyloid result in data set [3] is “●”. For the same substance, in data set [4], the “pFTAA Binding” value was “●”.

As to YDLHYW, the TEM result in data set [1] is reported as “●”. Besides, the “Th-T Binding” value in data set [2] is listed as “●”. For the same substance, the Amyloid entry in data set [3] is “●”. For the same substance, in data set [4], the “pFTAA Binding” value is reported as “●”.

Turning to YFHARG, the TEM result in data set [1] is “●”. Besides, in data set [3], the Amyloid result is recorded as “●”.

Take YIILYN: the TEM result in data set [1] is on record as “●”. Moreover, the “Th-T Binding” value in data set [2] was “●”. Besides, the Amyloid entry in data set [3] is listed as “●”. For the same substance, the “pFTAA Binding” value in data set [4] is on record as “●”.

With YQLVLQ, the TEM result in data set [1] is “●”. Also, in data set [2], the “Th-T Binding” value is listed as “●”. Also, the Amyloid result in data set [3] is “●”. Moreover, the “pFTAA Binding” value in data set [4] is “●”.

Source of the values: patent US20230245725A1, “Means and Methods for the Prediction of Amyloid Core Sequences” (VIB VZW, priority 2020, published 2023).
